Test system: MV-4-11 cells
Assay: Gene expression microarray analysis (Affymetrix PrimeView) and GSEA
Assay type: cell-based, human
Parameters: RFU PODN (11730768_x_at) / Fold change /veh PODN (11730768_x_at) / RFU LINC00158 (11744669_a_at) / Fold change /veh LINC00158 (11744669_a_at) / RFU DUSP10 (11751237_a_at) / Fold change /veh DUSP10 (11751237_a_at) / RFU ID3 (11757404_x_at) / Fold change /veh ID3 (11757404_x_at) / RFU PLEKHG5 (11737974_s_at) / Fold change /veh PLEKHG5 (11737974_s_at) / RFU LRRC4B (11730491_at) / Fold change /veh LRRC4B (11730491_at) / RFU GIMAP4 (11747438_a_at) / Fold change /veh GIMAP4 (11747438_a_at) / RFU KRT8 (11758183_x_at) / Fold change /veh KRT8 (11758183_x_at) / RFU CNN1 (11734310_a_at) / Fold change /veh CNN1 (11734310_a_at) / RFU VPS37D (11726825_at) / Fold change /veh VPS37D (11726825_at) / RFU C10orf10 (11716522_x_at) / Fold change /veh C10orf10 (11716522_x_at) / RFU KIR2DL2 /// KIR2DL4 /// KIR2DL5A /// KIR2DL5B /// KIR2DS1 /// KIR2DS2 /// KIR2DS3 /// KIR2DS4 /// KIR3DL3 /// KIR3DL3 /// KIR3DS1 (11738374_at) / Fold change /veh KIR2DL2 /// KIR2DL4 /// KIR2DL5A /// KIR2DL5B /// KIR2DS1 /// KIR2DS2 /// KIR2DS3 /// KIR2DS4 /// KIR3DL3 /// KIR3DL3 /// KIR3DS1 (11738374_at) / RFU C1QL1 (11718748_at) / Fold change /veh C1QL1 (11718748_at) / RFU TMPRSS4 (11747572_a_at) / Fold change /veh TMPRSS4 (11747572_a_at) / RFU HAMP (11756126_x_at) / Fold change /veh HAMP (11756126_x_at) / RFU RNFT2 (11725882_a_at) / Fold change /veh RNFT2 (11725882_a_at) / RFU NR4A2 (11747474_a_at) / Fold change /veh NR4A2 (11747474_a_at) / RFU ABCC12 (11746883_a_at) / Fold change /veh ABCC12 (11746883_a_at) / RFU TMEM136 (11760407_x_at) / Fold change /veh TMEM136 (11760407_x_at) / RFU CLDN22 /// WWC2 (11732394_at) / Fold change /veh CLDN22 /// WWC2 (11732394_at) / RFU HLA-DPB1 (11760878_x_at) / Fold change /veh HLA-DPB1 (11760878_x_at) / RFU SPINT1 (11716480_a_at) / Fold change /veh SPINT1 (11716480_a_at) / RFU GAP43 (11754022_s_at) / Fold change /veh GAP43 (11754022_s_at) / RFU A4GNT (11735810_at) / Fold change /veh A4GNT (11735810_at) / RFU PRB3 (11715151_x_at) / Fold change /veh PRB3 (11715151_x_at) / RFU TUBB4B (11761932_at) / Fold change /veh TUBB4B (11761932_at) / RFU CAPN14 (11732068_a_at) / Fold change /veh CAPN14 (11732068_a_at) / RFU TMCC2 (11721928_a_at) / Fold change /veh TMCC2 (11721928_a_at) / RFU IRGQ (11745062_a_at) / Fold change /veh IRGQ (11745062_a_at) / RFU FAM174B (11720279_a_at) / Fold change /veh FAM174B (11720279_a_at) / RFU TMPRSS4 (11748680_a_at) / Fold change /veh TMPRSS4 (11748680_a_at) / RFU FAM212B (11763350_a_at) / Fold change /veh FAM212B (11763350_a_at) / RFU PLEKHG5 (11743358_a_at) / Fold change /veh PLEKHG5 (11743358_a_at) / RFU ZSCAN30 (11745921_a_at) / Fold change /veh ZSCAN30 (11745921_a_at) / RFU CMKLR1 (11741424_a_at) / Fold change /veh CMKLR1 (11741424_a_at) / RFU LOC101060620 /// MAPK8IP1 (11723275_at) / Fold change /veh LOC101060620 /// MAPK8IP1 (11723275_at) / RFU SPTSSB (11747773_x_at) / Fold change /veh SPTSSB (11747773_x_at) / RFU PRSS12 (11739890_at) / Fold change /veh PRSS12 (11739890_at) / RFU BIN1 (11741810_x_at) / Fold change /veh BIN1 (11741810_x_at) / RFU WNT11 (11732464_a_at) / Fold change /veh WNT11 (11732464_a_at) / RFU C10orf10 (11716521_a_at) / Fold change /veh C10orf10 (11716521_a_at) / RFU C5orf56 (11738089_at) / Fold change /veh C5orf56 (11738089_at) / RFU CYB561 (11721691_x_at) / Fold change /veh CYB561 (11721691_x_at) / RFU ANKRD19P (11752326_a_at) / Fold change /veh ANKRD19P (11752326_a_at) / RFU OR2T12 /// OR2T33 /// OR2T8 (11738714_s_at) / Fold change /veh OR2T12 /// OR2T33 /// OR2T8 (11738714_s_at) / RFU VCAN (11748164_a_at) / Fold change /veh VCAN (11748164_a_at) / RFU JSRP1 (11732532_at) / Fold change /veh JSRP1 (11732532_at) / RFU KRTAP10-11 (11738290_x_at) / Fold change /veh KRTAP10-11 (11738290_x_at) / RFU MYO3A (11730013_a_at) / Fold change /veh MYO3A (11730013_a_at) / RFU EBF3 (11725865_a_at) / Fold change /veh EBF3 (11725865_a_at) / RFU CAMK2N1 (11719241_x_at) / Fold change /veh CAMK2N1 (11719241_x_at) / RFU C5orf56 (11738088_a_at) / Fold change /veh C5orf56 (11738088_a_at) / RFU OLFML3 (11715873_a_at) / Fold change /veh OLFML3 (11715873_a_at) / RFU LOC100653217 /// NTM (11731650_a_at) / Fold change /veh LOC100653217 /// NTM (11731650_a_at) / RFU MAPK11 (11762145_a_at) / Fold change /veh MAPK11 (11762145_a_at) / RFU FIZ1 (11724087_x_at) / Fold change /veh FIZ1 (11724087_x_at) / RFU OASL (11726364_x_at) / Fold change /veh OASL (11726364_x_at) / RFU SOX15 (11748057_x_at) / Fold change /veh SOX15 (11748057_x_at) / RFU CD79A (11719716_a_at) / Fold change /veh CD79A (11719716_a_at) / RFU HIST1H1D (11736915_at) / Fold change /veh HIST1H1D (11736915_at) / RFU CASKIN2 (11723855_a_at) / Fold change /veh CASKIN2 (11723855_a_at) / RFU LOC730098 (11760151_x_at) / Fold change /veh LOC730098 (11760151_x_at) / RFU OR4N2 (11742367_at) / Fold change /veh OR4N2 (11742367_at) / RFU PRRT2 (11749266_a_at) / Fold change /veh PRRT2 (11749266_a_at) / RFU SNX32 (11753110_a_at) / Fold change /veh SNX32 (11753110_a_at) / RFU CDHR5 (11726645_a_at) / Fold change /veh CDHR5 (11726645_a_at) / RFU RCAN1 (11760418_a_at) / Fold change /veh RCAN1 (11760418_a_at) / RFU FAM167A (11723789_a_at) / Fold change /veh FAM167A (11723789_a_at) / RFU FAM26E (11764081_at) / Fold change /veh FAM26E (11764081_at) / RFU ISYNA1 (11749810_s_at) / Fold change /veh ISYNA1 (11749810_s_at) / RFU ACY1 (11761880_at) / Fold change /veh ACY1 (11761880_at) / RFU 11764098_at / Fold change /veh 11764098_at / RFU SAMD14 (11745864_x_at) / Fold change /veh SAMD14 (11745864_x_at) / RFU NPB (11741838_a_at) / Fold change /veh NPB (11741838_a_at) / RFU TMPRSS6 (11731388_a_at) / Fold change /veh TMPRSS6 (11731388_a_at) / RFU KRTAP10-2 (11738614_at) / Fold change /veh KRTAP10-2 (11738614_at) / RFU ARHGAP8 /// PRR5-ARHGAP8 (11727945_x_at) / Fold change /veh ARHGAP8 /// PRR5-ARHGAP8 (11727945_x_at) / RFU KRTAP5-7 /// NADSYN1 (11734609_at) / Fold change /veh KRTAP5-7 /// NADSYN1 (11734609_at) / RFU RASL12 (11751679_a_at) / Fold change /veh RASL12 (11751679_a_at) / RFU CDKN2B (11736163_a_at) / Fold change /veh CDKN2B (11736163_a_at) / RFU PRF1 (11729649_at) / Fold change /veh PRF1 (11729649_at) / RFU, ZNF638 /// ZNF638-IT1 / Fold change vs veh, ZNF638 /// ZNF638-IT1 / RFU, PANK3 / Fold change vs veh, PANK3 / RFU, SH3YL1 / Fold change vs veh, SH3YL1 / RFU, ZEB2 / Fold change vs veh, ZEB2 / RFU, NRIP1 / Fold change vs veh, NRIP1 / RFU, PTTG1IP / Fold change vs veh, PTTG1IP / RFU, CAPN2 / Fold change vs veh, CAPN2 / RFU, MED14 / Fold change vs veh, MED14 / RFU, SNORA58 / Fold change vs veh, SNORA58 / RFU, C1orf63 / Fold change vs veh, C1orf63 / RFU, LRRFIP1 / Fold change vs veh, LRRFIP1 / RFU, NDUFAF7 / Fold change vs veh, NDUFAF7 / RFU, SLC12A2 / Fold change vs veh, SLC12A2 / RFU, IBTK / Fold change vs veh, IBTK / RFU, ESF1 / Fold change vs veh, ESF1 / Fold change vs veh, TMEM50B / RFU, TAOK1 / Fold change vs veh, TAOK1 / RFU, ACBD3 / Fold change vs veh, ACBD3 / RFU, TMA16 / Fold change vs veh, TMA16 / RFU, RWDD3 / Fold change vs veh, RWDD3 / RFU, BCAT1 / Fold change vs veh, BCAT1 / RFU, EDEM3 / Fold change vs veh, EDEM3 / RFU, TMEM33 / Fold change vs veh, TMEM33 / RFU, WDR75 / Fold change vs veh, WDR75 / RFU, AHCTF1 / Fold change vs veh, AHCTF1 / RFU, TFRC / Fold change vs veh, TFRC / RFU, ZDHHC17 / Fold change vs veh, ZDHHC17 / RFU, NOM1 / Fold change vs veh, NOM1 / RFU, ARL8B / Fold change vs veh, ARL8B / RFU, ZBTB11 / Fold change vs veh, ZBTB11 / RFU, TAMM41 / Fold change vs veh, TAMM41 / RFU, KIAA1704 /// LOC100996395 / Fold change vs veh, KIAA1704 /// LOC100996395 / RFU, ING1 / Fold change vs veh, ING1 / RFU, TRMT61B / Fold change vs veh, TRMT61B / RFU, FUBP3 / Fold change vs veh, FUBP3 / RFU, TP53 / Fold change vs veh, TP53 / RFU, TNKS2 / Fold change vs veh, TNKS2 / RFU, ZFP14 / Fold change vs veh, ZFP14 / RFU, ACTR2 / Fold change vs veh, ACTR2 / RFU, PPP3R1 / Fold change vs veh, PPP3R1 / RFU, PIK3R1 / Fold change vs veh, PIK3R1 / RFU, HNRNPA1 / Fold change vs veh, HNRNPA1 / RFU, RNF170 / Fold change vs veh, RNF170 / RFU, ZNF28 / Fold change vs veh, ZNF28 / RFU, RNGTT / Fold change vs veh, RNGTT / RFU, OGT / Fold change vs veh, OGT / RFU, BRD1 / Fold change vs veh, BRD1 / RFU, MARS / Fold change vs veh, MARS / RFU, ZNF655 / Fold change vs veh, ZNF655 / RFU, FAHD1 / Fold change vs veh, FAHD1 / RFU, BDP1 / Fold change vs veh, BDP1 / RFU, LRRCC1 / Fold change vs veh, LRRCC1 / RFU, ARID1A / Fold change vs veh, ARID1A / RFU, ZNF146 / Fold change vs veh, ZNF146 / RFU, ZNF330 / Fold change vs veh, ZNF330 / RFU, GPN3 / Fold change vs veh, GPN3 / RFU, C9orf123 / Fold change vs veh, C9orf123 / RFU, N4BP2L2 / Fold change vs veh, N4BP2L2 / RFU, ARFIP1 / Fold change vs veh, ARFIP1 / RFU, FAM179B / Fold change vs veh, FAM179B / RFU, BCL10 / Fold change vs veh, BCL10 / RFU, UHRF1BP1L / Fold change vs veh, UHRF1BP1L / RFU, BET1 / Fold change vs veh, BET1 / RFU, CNOT2 / Fold change vs veh, CNOT2 / RFU, ZNF268 / Fold change vs veh, ZNF268 / Fold change vs veh, ZNF507 / RFU, DGCR2 / Fold change vs veh, DGCR2 / RFU, WDSUB1 / Fold change vs veh, WDSUB1 / Fold change vs veh, HSP90B1 /// MIR3652 / RFU, ADSS / Fold change vs veh, ADSS / RFU, GK / Fold change vs veh, GK / RFU, ZNF148 / Fold change vs veh, ZNF148 / RFU, TAF9 / Fold change vs veh, TAF9 / RFU, SLC1A5 / Fold change vs veh, SLC1A5 / RFU, SLMO2 / Fold change vs veh, SLMO2 / RFU, ABCC4 / Fold change vs veh, ABCC4 / RFU, LOC101060439 /// RAP1B / Fold change vs veh, LOC101060439 /// RAP1B / RFU, RFX7 / Fold change vs veh, RFX7 / RFU, GTPBP10 / Fold change vs veh, GTPBP10 / RFU, CNEP1R1 / Fold change vs veh, CNEP1R1 / RFU, BIVM-ERCC5 /// ERCC5 / Fold change vs veh, BIVM-ERCC5 /// ERCC5 / RFU, ILF3 / Fold change vs veh, ILF3 / RFU 11762660_at / Fold change /veh 11762660_at / RFU VCAN (11757783_s_at) / Fold change /veh VCAN (11757783_s_at) / RFU DDX43 (11728927_at) / Fold change /veh DDX43 (11728927_at) / RFU KRT8 (11758188_x_at) / Fold change /veh KRT8 (11758188_x_at) / RFU NKD1 (11759106_at) / Fold change /veh NKD1 (11759106_at) / RFU SRD5A1 (11742802_a_at) / Fold change /veh SRD5A1 (11742802_a_at) / RFU TPSAB1 /// TPSB2 (11721975_s_at) / Fold change /veh TPSAB1 /// TPSB2 (11721975_s_at) / RFU GSTM3 (11746129_a_at) / Fold change /veh GSTM3 (11746129_a_at) / RFU IL23R (11737362_x_at) / Fold change /veh IL23R (11737362_x_at) / RFU TMEM51 (11727254_a_at) / Fold change /veh TMEM51 (11727254_a_at) / RFU PIWIL2 (11732686_x_at) / Fold change /veh PIWIL2 (11732686_x_at) / RFU ORM1 (11744905_x_at) / Fold change /veh ORM1 (11744905_x_at) / RFU CCDC152 (11743942_at) / Fold change /veh CCDC152 (11743942_at) / RFU ECM1 (11717891_a_at) / Fold change /veh ECM1 (11717891_a_at) / RFU IL23R (11748794_a_at) / Fold change /veh IL23R (11748794_a_at) / RFU TNFAIP8L3 (11732012_x_at) / Fold change /veh TNFAIP8L3 (11732012_x_at) / RFU MBOAT4 (11741988_at) / Fold change /veh MBOAT4 (11741988_at) / RFU 11764193_at / Fold change /veh 11764193_at / RFU TMEM53 (11763286_at) / Fold change /veh TMEM53 (11763286_at) / RFU MAGEB2 (11727129_at) / Fold change /veh MAGEB2 (11727129_at) / RFU TMEM200A (11744735_a_at) / Fold change /veh TMEM200A (11744735_a_at) / RFU CCDC152 (11751479_a_at) / Fold change /veh CCDC152 (11751479_a_at) / RFU FAM211A (11726209_a_at) / Fold change /veh FAM211A (11726209_a_at) / RFU RGS16 (11746705_a_at) / Fold change /veh RGS16 (11746705_a_at) / RFU VCAN (11755009_s_at) / Fold change /veh VCAN (11755009_s_at) / RFU RHOB (11743442_s_at) / Fold change /veh RHOB (11743442_s_at) / RFU RGS16 (11720943_a_at) / Fold change /veh RGS16 (11720943_a_at) / RFU RGS16 (11720944_at) / Fold change /veh RGS16 (11720944_at) / RFU, VPS4B / Fold change vs veh, VPS4B / RFU, CREB1 / Fold change vs veh, CREB1 / RFU, DNAJC13 / Fold change vs veh, DNAJC13 / RFU, GNAQ / Fold change vs veh, GNAQ / RFU, CDK5R1 / Fold change vs veh, CDK5R1 / RFU, ZRANB3 / Fold change vs veh, ZRANB3 / RFU, CUL4A / Fold change vs veh, CUL4A / RFU, CCNY / Fold change vs veh, CCNY / RFU, UFL1 / Fold change vs veh, UFL1 / RFU, COG3 / Fold change vs veh, COG3 / RFU, DIAPH2 / Fold change vs veh, DIAPH2 / RFU, SKA2 / Fold change vs veh, SKA2 / RFU, AFF3 / Fold change vs veh, AFF3 / RFU, LMF1 / Fold change vs veh, LMF1 / RFU, IPO11 / Fold change vs veh, IPO11 / RFU, DFFB / Fold change vs veh, DFFB / RFU, FOXP1 / Fold change vs veh, FOXP1 / RFU, CARD8 / Fold change vs veh, CARD8 / RFU, STRN3 / Fold change vs veh, STRN3 / RFU, ADK / Fold change vs veh, ADK / RFU, RASSF2 / Fold change vs veh, RASSF2 / RFU, WIPF1 / Fold change vs veh, WIPF1 / RFU, LARP1B / Fold change vs veh, LARP1B / RFU, RASA1 / Fold change vs veh, RASA1 / RFU, RB1 / Fold change vs veh, RB1 / RFU, PPFIA1 / Fold change vs veh, PPFIA1 / RFU, MAT2A / Fold change vs veh, MAT2A / RFU, CCT5 / Fold change vs veh, CCT5 / RFU, WDR92 / Fold change vs veh, WDR92 / RFU, CUX1 / Fold change vs veh, CUX1 / RFU, TTC7A / Fold change vs veh, TTC7A / RFU, TMEM135 / Fold change vs veh, TMEM135 / RFU, DEPTOR / Fold change vs veh, DEPTOR / RFU, CPM / Fold change vs veh, CPM / RFU, DNAJB6 / Fold change vs veh, DNAJB6 / RFU, CACNA2D3 / Fold change vs veh, CACNA2D3 / RFU, DTX4 / Fold change vs veh, DTX4 / RFU, TFCP2 / Fold change vs veh, TFCP2 / RFU, GMCL1 /// GMCL1P1 / Fold change vs veh, GMCL1 /// GMCL1P1 / RFU, AEBP2 / Fold change vs veh, AEBP2 / RFU, SNHG1 /// SNORD22 /// SNORD25 /// SNORD26 /// SNORD27 /// SNORD28 /// SNORD29 /// SNORD31 / Fold change vs veh, SNHG1 /// SNORD22 /// SNORD25 /// SNORD26 /// SNORD27 /// SNORD28 /// SNORD29 /// SNORD31 / Fold change (Aza/veh), C12orf56 (ProbeSet 11735607_a_at) / Fold change (ACY-1035/veh), C12orf56 (ProbeSet 11735607_a_at) / Fold change (Aza/veh), FGFR1OP (ProbeSet 11751329_s_at) / Fold change (ACY-1035/veh), FGFR1OP (ProbeSet 11751329_s_at) / Fold change (Aza/veh), VPS36 (ProbeSet 11739960_a_at) / Fold change (ACY-1035/veh), VPS36 (ProbeSet 11739960_a_at) / RFU SYPL1 (11715823_x_at) / Fold change /veh SYPL1 (11715823_x_at) / RFU IGFBP7 (11715501_s_at) / Fold change /veh IGFBP7 (11715501_s_at) / RFU REEP3 (11722064_at) / Fold change /veh REEP3 (11722064_at) / RFU IGLL1 (11728026_x_at) / Fold change /veh IGLL1 (11728026_x_at): dose or concentration left out as unconfirmed
Settings: MV-4-11 cells, 48 hours

Nc1ncn([C@@H]2O[C@H](CO)[C@@H](O)[C@H]2O)c(=O)n1 [azacitidine]
RFU ABCC12 (11746883_a_at): 6.52 RFU
